# PubChem BioAssay (NCI)
#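 Results reflect a 48-hour exposure of cells in 96-well plates to compound at five concentrations. At the GI50, growth is halved. TGI is the concentration that stops growth completely.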
# Experiments:
# Assay in all cases: inhibition of tumour cell growth, NCI panel, 48 h
# [1] = test system: MDA-MB-435
# [2] = test system: NCI-H522 lung
# [3] = test system: SK-MEL-28 melanoma
# [4] = test system: HL-60(TB) leukemia
# [5] = test system: HOP-62 NSCLC
# [6] = test system: SNB-19 CNS
# [7] = test system: 786-0 renal
# [8] = test system: HCT-116 colon
# [9] = test system: NCI/ADR-RES ovarian
# [10] = test system: HOP-92 NSCLC
# [11] = test system: MCF7 breast
# [12] = test system: COLO 205 colon
# [13] = test system: A498 renal
# [14] = test system: MDA-MB-231 breast
# [15] = test system: ACHN renal
# [16] = test system: TK-10 renal
# [17] = test system: NCI-H23 lung
# [18] = test system: CAKI-1 renal
# [19] = test system: M14 melanoma
# [20] = test system: SN12C renal
# [21] = test system: NCI-H460 lung
# [22] = test system: SK-MEL-5 melanoma
# [23] = test system: NCI-H226 lung
# [24] = test system: HCC-2998 colon
# [25] = test system: OVCAR-3 ovarian
# [26] = test system: U251 CNS
# [27] = test system: KM12 colon
# [28] = test system: MALME-3M melanoma
# [29] = test system: DU-145 prostate
# [30] = test system: SNB-75 CNS
# [31] = test system: SR leukemia
# [32] = test system: OVCAR-4 ovarian
# [33] = test system: T-47D breast
# [34] = test system: RXF 393 renal
# [35] = test system: EKVX NSCLC
# [36] = test system: HS 578T breast
# [37] = test system: LOX IMVI melanoma
# [38] = test system: PC-3 prostate
# [39] = test system: UACC-62 melanoma
# [40] = test system: CCRF-CEM leukemia
# [41] = test system: SF-539 CNS
# [42] = test system: BT-549 breast
# [43] = test system: SF-268 CNS
# [44] = test system: OVCAR-8 ovarian
# [45] = test system: SK-OV-3 ovarian
# [46] = test system: SW-620 colon
# [47] = test system: OVCAR-5 ovarian
# [48] = test system: MOLT-4 leukemia
# [49] = test system: UACC-257 melanoma
# [50] = test system: A549 NSCLC
# [51] = test system: RPMI-8226 leukemia
# [52] = test system: UO-31 renal
# [53] = test system: IGROV1 ovarian
# [54] = test system: HT29 colon
# [55] = test system: HCT-15 colon
# [56] = test system: SK-MEL-2 melanoma
# [57] = test system: SF-295 CNS
# [58] = test system: K-562 leukemia
structure (smiles),measurement,setting,value
Cc1cc(C(NC(=O)CCCCCNc2cccc3c2C(=O)N(C2CCC(=O)NC2=O)C3=O)c2cccnc2)c(O)c2ncccc12 (stereo not drawn),GI50,[1],2350 nM
same,TGI,[1],> 100000 nM
same,GI50,[2],639 nM
same,GI50,[3],904 nM
same,TGI,[3],> 74900 nM
same,GI50,[4],< 13.4 nM
same,TGI,[4],35.5 nM
same,GI50,[5],21.4 nM
same,TGI,[5],685 nM
same,GI50,[6],273 nM
same,TGI,[6],> 100000 nM
same,GI50,[7],164 nM
same,TGI,[7],14700 nM
same,GI50,[8],1520 nM
same,TGI,[8],> 100000 nM
same,GI50,[9],13400 nM
same,TGI,[9],> 100000 nM
same,GI50,[10],< 12.1 nM
same,TGI,[10],304 nM
same,GI50,[11],62.5 nM
same,TGI,[11],14000 nM
same,GI50,[12],28.8 nM
same,TGI,[12],1670 nM
same,GI50,[13],202 nM
same,TGI,[13],6520 nM
same,GI50,[14],13.6 nM
same,TGI,[14],193 nM
same,GI50,[15],3580 nM
same,TGI,[15],> 59500 nM
same,GI50,[16],413 nM
same,TGI,[16],> 100000 nM
same,GI50,[17],1800 nM
same,TGI,[17],43800 nM
same,GI50,[18],471 nM
same,TGI,[18],16700 nM
same,GI50,[19],100 nM
same,TGI,[19],4990 nM
same,GI50,[20],50.1 nM
same,GI50,[21],1510 nM
same,TGI,[21],28100 nM
same,GI50,[22],52.5 nM
same,TGI,[22],999 nM
same,GI50,[23],32.4 nM
same,TGI,[23],961 nM
same,GI50,[24],26.4 nM
same,TGI,[24],2450 nM
same,GI50,[25],252 nM
same,TGI,[25],15600 nM
same,GI50,[26],641 nM
same,TGI,[26],> 100000 nM
same,GI50,[27],199 nM
same,TGI,[27],21300 nM
same,GI50,[28],< 10 nM
same,TGI,[28],22.4 nM
same,GI50,[29],1920 nM
same,TGI,[29],> 100000 nM
same,GI50,[30],20.8 nM
same,TGI,[30],5320 nM
same,GI50,[31],433 nM
same,TGI,[31],> 54200 nM
same,GI50,[32],22.1 nM
same,TGI,[32],325 nM
same,GI50,[33],10.3 nM
same,TGI,[33],5120 nM
same,GI50,[34],221 nM
same,TGI,[34],2280 nM
same,GI50,[35],809 nM
same,TGI,[35],> 22500 nM
same,GI50,[36],18.4 nM
same,TGI,[36],7090 nM
same,GI50,[37],856 nM
same,TGI,[37],12400 nM
same,GI50,[38],20.7 nM
same,GI50,[39],1810 nM
same,TGI,[39],6350 nM
same,GI50,[40],< 10 nM
same,TGI,[40],> 100000 nM
same,GI50,[41],933 nM
same,TGI,[41],8950 nM
same,GI50,[42],< 12.8 nM
same,TGI,[42],39.2 nM
same,GI50,[43],112 nM
same,TGI,[43],18800 nM
same,GI50,[44],< 16.3 nM
same,TGI,[44],8330 nM
same,GI50,[45],222 nM
same,TGI,[45],3920 nM
same,GI50,[46],21 nM
same,TGI,[46],> 100000 nM
same,GI50,[47],637 nM
same,TGI,[47],> 100000 nM
same,GI50,[48],< 10 nM
same,TGI,[48],156 nM
same,GI50,[49],2090 nM
same,TGI,[49],> 27600 nM
same,GI50,[50],734 nM
same,TGI,[50],28000 nM
same,GI50,[51],1350 nM
same,TGI,[51],> 100000 nM
same,GI50,[52],362 nM
same,TGI,[52],34400 nM
same,GI50,[53],27.2 nM
same,TGI,[53],3800 nM
same,GI50,[54],446 nM
same,TGI,[54],> 100000 nM
same,GI50,[55],228 nM
same,TGI,[55],> 100000 nM
same,GI50,[56],485 nM
same,TGI,[56],11400 nM
same,GI50,[57],291 nM
same,TGI,[57],8140 nM
same,GI50,[58],1210 nM
same,TGI,[58],> 100000 nM
